Assay results taken from US12661360B2 (Tulex Pharmaceuticals Inc., priority 2023, dated 2026).
Converted amounts (≈) assume the structure as drawn.

Assay: Solubilities of lamotrigine in various non-aqueous solvents and purified water
Type: physicochemical

`Nc1nnc(-c2cccc(Cl)c2Cl)c(N)n1` [lamotrigine, 3,5-diamino-6-(2,3-dichlorophenyl)-1,2,4-triazine] showed a solubility (organic solvent or mixture, solvent Glycerin) of 20.2 mg/mL (≈ 79 mM), a solubility (organic solvent or mixture, solvent PEG 400) greater than 30 mg/mL and a solubility (organic solvent or mixture, solvent Polypropylene glycol 400) of 10 to 20 mg/mL (≈ 39 to 78.1 mM). For the same compound, the solubility (organic solvent or mixture, solvent Propylene Glycol) was 40.2 mg/mL (≈ 157 mM) and the solubility (solvent Purified water) was 0.31 mg/mL (≈ 1.21 mM).
